What all share (assay type): cell-based, hepatitis C virus (genotype 1a-H77)
Assay [1] relates to HCV replicon with a R155K mutation in a 1a-H77 background. The experiment in a line: transient replicon assay, R155K mutation in 1a-H77 background. As to conditions: Hepatitis C virus, read-out: EC50 in a transient replicon assay with a R155K mutation in a 1a-H77 background. As to the method:
(§1) Replicon cell lines can be maintained in Dulbecco's modified Eagles medium (DMEM) containing 100 IU/ml penicillin, […] streptomycin (Invitrogen), […] G418 (Invitrogen) and 10% (v/v) fetal bovine serum (FBS). Replicon-containing cells can be seeded into 96 well plates at a density of 5000 cells per well in 100 μl DMEM containing 5% FBS. The next day, the compound can be initially diluted in dimethyl sulfoxide (DMSO) to generate a 200× stock of the inhibitor in a series of 8 half-log dilutions. The dilution series can then be diluted 100-fold in the medium containing 5% FBS. One hundred microliters of medium with the inhibitor can be added to each well of the overnight cell culture plate already containing 100 μl of DMEM with 5% FBS. In assays where the protein binding effect on inhibitor potency is assessed, the medium from the overnight cell culture plates can be replaced with 200 μl DMEM containing 40% human plasma (Innovative Research) plus 5% FBS as well as compound. The cells can be grown for 4 days in tissue culture incubators. The inhibitory effects of compounds against the replicons can be determined by measuring either the level of luciferase or HCV RNA. The luciferase assay can be conducted using a Luciferase Assay System kit (Promega) following the manufacturer's instructions. Briefly, the cell culture medium is removed and wells are washed with 200 μl of phosphate-buffered saline. To each well Passive Lysis buffer (Promega, Wis.) is added and the plates are incubated for 30 min with rocking to lyse the cells. Luciferin solution (50 μl, Promega) is added, and luciferase activity is measured with a Victor II luminometer (Perkin-Elmer). To determine HCV RNA levels, RNA extractions can be performed using the CellsDirect kit (Invitrogen), and the HCV RNA copy number can be measured using the SuperScript III Platinum One-Step qRT-PCR system (Invitrogen) and primers specific to the HCV 5′ nontranslated region. Cytotoxicity can be determined by the 3-[4,5-dimethylhiazol-2-yl]-2,5-diphenyltetrazolium bromide (MTT) colorimetric assay as follows. Replicon cells is plated in 96-well plates (4000 cells per well), the next day compound dilutions are added as in the activity assay, and the cells are grown in the presence of the inhibitors for 4 days. The MTT solution is diluted in DMEM containing 5% FBS and 60 μl of the solution is added to the cells. After 4 hrs, the cells are solubilized by the addition of 30 […]μl SDS (20% in 0.02 N HCl). The plates are incubated overnight and the optical density can be measured at 570 nm. To determine compounds' EC50 and TD50, luciferase, RNA inhibition and MTT data can be analyzed using the GraphPad Prism 4 software (equation: sigmoidal dose-response—variable slope).
(§2) The 1a-H77 replicon for transient assays further differs from the replicon in the stable cell line in that it contains NS2 through NS5B in the second cistron. The 1b-N strain replicon contains NS3 through NS5B in the second cistron, with adaptive mutations E1202G in NS3 and S2204I in NS5A. Mutagenesis can be performed using the Stratagene QuikChange XL II site-directed mutagenesis kit. Mutants' sequences can be confirmed, plasmids can be linearized with Xba I restriction enzyme and used as template for in vitro transcription reactions to make mutant replicon RNA for transient transfections. In vitro transcription can be performed with the T7 Megascript kit (Ambion).
(§3) Transient replicon transfections can be performed essentially as described by Mo et al. (Antimicrob Agents Chemother (2005) 49(10):4305-4314) with slight modifications. Fifteen micrograms of template RNA can be used to electroporate 3×10^6 cells in a 200 μl volume in a 0.2 cm cuvette. The cells used for transient transfections can be Huh7 cells obtained by curing replicon-containing cells with IFN (Mo et al., supra). Electroporation can be done with a Gene Pulser II (Bio-Rad, CA) at 480V and 25 μF, using two manual pulses. […]
A general note: A replicon is a self-replicating genome or part of one, used to study replication in cells.

Assay [2] deals with HCV replicon with a D168V mutation in a 1a-H77 background. As to the kind of experiment: transient replicon assay, D168V mutation in 1a-H77 background. As to conditions: Hepatitis C virus, read-out: EC50 in a transient replicon assay with a D168V mutation in a 1a-H77 background. How it is done:
as §1, §2, §3

In assay [3] the test system is HCV replicon with a D168E mutation in a 1a-H77 background. As to the kind of experiment: transient replicon assay, D168E mutation in 1a-H77 background. The note with it: Hepatitis C virus, read-out: EC50 in a transient replicon assay with a D168E mutation in a 1a-H77 background. As to the method:
as §1, §2, §3

We go through ten compounds from patent US9493506B2 (Enanta Pharmaceuticals, Inc., priority 2010, dated 2016).

The term EC50 denotes the midpoint of the concentration-response curve. With `CC(C)(C)C(=O)N[C@H]1CCCCC/C=C\[C@@H]2C[C@@]2(C(=O)NS(=O)(=O)C2CC2)NC(=O)[C@@H]2C[C@@H](Oc3nc4ccccc4nc3C(C)(F)F)CN2C1=O` [Example 4, (2R,6S,13aS,14aR,16aS,Z)—N-(cyclopropylsulfonyl)-2-(3-(1,1-difluoroethyl)quinoxalin-2-yloxy)-5,16-dioxo-6-pivalamido-1,2,3,5,6,7,8,9,10,11,13a,14,14a,15,16,16a-hexadecahydrocyclopropa[e]pyrrolo[1,2-a][1,4]diazacyclopentadecine-14a-carboxamide], the EC50 in assay [1] was 1 to 10 nM; in assay [2], 50 to 250 nM; in assay [3], 3 to 20 nM.
For the compound `Cc1cc(C(=O)N[C@H]2CCCCC/C=C\[C@@H]3C[C@@]3(C(=O)NS(=O)(=O)C3CC3)NC(=O)[C@@H]3C[C@@H](Oc4nc5c(F)cccc5nc4C(F)(F)F)CN3C2=O)no1` [Example 113, N-((2R,6S,13aS,14aR,16aS,Z)-14a-(cyclopropylsulfonylcarbamoyl)-2-(8-fluoro-3-(trifluoromethyl)quinoxalin-2-yloxy)-5,16-dioxo-1,2,3,5,6,7,8,9,10,11,13a,14,14a,15,16,16a-hexadecahydrocyclopropa[e]pyrrolo[1,2-a][1,4]diazacyclopentadecin-6-yl)-5-methylisoxazole-3-carboxamide], the values for the EC50 in assay [1], in assay [2] and in assay [3] were less than 1 nM, less than 25 nM and less than 3 nM, respectively.
On to `Cc1nc2c(Br)cc(F)cc2nc1O[C@@H]1C[C@H]2C(=O)N[C@]3(C(=O)NS(=O)(=O)C4(C)CC4)C[C@H]3/C=C\CCCCC[C@H](NC(=O)c3noc(C)c3C)C(=O)N2C1` [Example 102, N-((2R,6S,13aS,14aR,16aS,Z)-2-(5-bromo-7-fluoro-3-methylquinoxalin-2-yloxy)-14a-(1-methylcyclopropylsulfonylcarbamoyl)-5,16-dioxo-1,2,3,5,6,7,8,9,10,11,13a,14,14a,15,16,16a-hexadecahydrocyclopropa[e]pyrrolo[1,2-a][1,4]diazacyclopentadecin-6-yl)-4,5-dimethylisoxazole-3-carboxamide], for which the figures for the half-maximal effective concentration (EC50) in assay [1], in assay [2] and in assay [3] were less than 1 nM, less than 25 nM and 3 to 20 nM, respectively.
On the same counts, the results for `Cc1nc2cccc(F)c2nc1O[C@@H]1C[C@H]2C(=O)N[C@]3(C(=O)NS(=O)(=O)C4CC4)C[C@H]3/C=C\CCCCC[C@H](NC(=O)c3ccon3)C(=O)N2C1` [Example 55, N-((2R,6S,13aS,14aR,16aS,Z)-14a-(cyclopropylsulfonylcarbamoyl)-2-(8-fluoro-3-methylquinoxalin-2-yloxy)-5,16-dioxo-1,2,3,5,6,7,8,9,10,11,13a,14,14a,15,16,16a-hexadecahydrocyclopropa[e]pyrrolo[1,2-a][1,4]diazacyclopentadecin-6-yl)isoxazole-3-carboxamide] are 1 to 10 nM, 50 to 250 nM and 20 to 50 nM.
On to `Cc1nc2cccc(F)c2nc1O[C@@H]1C[C@H]2C(=O)N[C@]3(C(=O)NS(=O)(=O)C4CC4)C[C@H]3/C=C\CCCCC[C@H](NC(=O)c3noc(C)c3C)C(=O)N2C1` [Example 57, N-((2R,6S,13aS,14aR,16aS,Z)-14a-(cyclopropylsulfonylcarbamoyl)-2-(8-fluoro-3-methylquinoxalin-2-yloxy)-5,16-dioxo-1,2,3,5,6,7,8,9,10,11,13a,14,14a,15,16,16a-hexadecahydrocyclopropa[e]pyrrolo[1,2-a][1,4]diazacyclopentadecin-6-yl)-4,5-dimethylisoxazole-3-carboxamide], for which the results for the EC50 in assay [1], in assay [2] and in assay [3] were less than 1 nM, less than 25 nM and 3 to 20 nM, respectively.
On the same counts, the results for `CCc1nc2cccc(F)c2nc1O[C@@H]1C[C@H]2C(=O)N[C@]3(C(=O)NS(=O)(=O)C4CC4)C[C@H]3/C=C\CCCCC[C@H](NC(=O)c3ccon3)C(=O)N2C1` [Example 161, N-((2R,6S,13aS,14aR,16aS,Z)-14a-(cyclopropylsulfonylcarbamoyl)-2-(3-ethyl-8-fluoroquinoxalin-2-yloxy)-5,16-dioxo-1,2,3,5,6,7,8,9,10,11,13a,14,14a,15,16,16a-hexadecahydrocyclopropa[e]pyrrolo[1,2-a][1,4]diazacyclopentadecin-6-yl)isoxazole-3-carboxamide] are 1 to 10 nM, 50 to 250 nM and 3 to 20 nM.
As for `Cc1onc(C(=O)N[C@H]2CCCCC/C=C\[C@@H]3C[C@@]3(C(=O)NS(=O)(=O)C3(C)CC3)NC(=O)[C@@H]3C[C@@H](Oc4nc5cc(F)ccc5nc4C(F)(F)F)CN3C2=O)c1C` [Example 108, N-((2R,6S,13aS,14aR,16aS,Z)-2-(7-fluoro-3-(trifluoromethyl)quinoxalin-2-yloxy)-14a-(1-methylcyclopropylsulfonylcarbamoyl)-5,16-dioxo-1,2,3,5,6,7,8,9,10,11,13a,14,14a,15,16,16a-hexadecahydrocyclopropa[e]pyrrolo[1,2-a][1,4]diazacyclopentadecin-6-yl)-4,5-dimethylisoxazole-3-carboxamide], the EC50 is less than 1 nM in assay [1], less than 25 nM in assay [2] and less than 3 nM in assay [3].
The matching figures for `CC(F)(F)c1nc2ccccc2nc1O[C@@H]1C[C@H]2C(=O)N[C@]3(C(=O)NS(=O)(=O)C4CC4)C[C@H]3/C=C\CCCCC[C@H](NC(=O)c3ccon3)C(=O)N2C1` [Example 3, N-((2R,6S,13aS,14aR,16aS,Z)-14a-(cyclopropylsulfonylcarbamoyl)-2-(3-(1,1-difluoroethyl)quinoxalin-2-yloxy)-5,16-dioxo-1,2,3,5,6,7,8,9,10,11,13a,14,14a,15,16,16a-hexadecahydrocyclopropa[e]pyrrolo[1,2-a][1,4]diazacyclopentadecin-6-yl)isoxazole-3-carboxamide]: less than 1 nM, 50 to 250 nM and less than 3 nM.
Regarding `CC(F)(F)c1nc2ccccc2nc1O[C@@H]1C[C@H]2C(=O)N[C@]3(C(=O)NS(=O)(=O)C4(C)CC4)C[C@H]3/C=C\CCCCC[C@H](NC(=O)c3ccon3)C(=O)N2C1` [Example 5, N-((2R,6S,13aS,14aR,16aS,Z)-2-(3-(1,1-difluoroethyl)quinoxalin-2-yloxy)-14a-(1-methylcyclopropylsulfonylcarbamoyl)-5,16-dioxo-1,2,3,5,6,7,8,9,10,11,13a,14,14a,15,16,16a-hexadecahydrocyclopropa[e]pyrrolo[1,2-a][1,4]diazacyclopentadecin-6-yl)isoxazole-3-carboxamide], the EC50 in assay [1] is less than 1 nM; in assay [2], less than 25 nM; in assay [3], less than 3 nM.
Regarding `Cc1cc(C(=O)N[C@H]2CCCCC/C=C\[C@@H]3C[C@@]3(C(=O)NS(=O)(=O)C3(C)CC3)NC(=O)[C@@H]3C[C@@H](Oc4nc5c(F)cccc5nc4C)CN3C2=O)no1` [Example 58, N-((2R,6S,13aS,14aR,16aS,Z)-2-(8-fluoro-3-methylquinoxalin-2-yloxy)-14a-(1-methylcyclopropylsulfonylcarbamoyl)-5,16-dioxo-1,2,3,5,6,7,8,9,10,11,13a,14,14a,15,16,16a-hexadecahydrocyclopropa[e]pyrrolo[1,2-a][1,4]diazacyclopentadecin-6-yl)-5-methylisoxazole-3-carboxamide], the EC50 in assay [1] was less than 1 nM; in assay [2], less than 25 nM; in assay [3] it was 3 to 20 nM.
